Biological target: Forkhead box protein O1 (Homo sapiens) (UniProt Q12778)
Details: HEK293, dose 1-50000 nM
Description: Inhibition of human FOXO1 expressed in HEK293 cells at 1 nM to 50 uM by Dual-Glo luciferase assay relative to control

Forkhead box protein O1 (Homo sapiens), sequence (Q12778 whole entry): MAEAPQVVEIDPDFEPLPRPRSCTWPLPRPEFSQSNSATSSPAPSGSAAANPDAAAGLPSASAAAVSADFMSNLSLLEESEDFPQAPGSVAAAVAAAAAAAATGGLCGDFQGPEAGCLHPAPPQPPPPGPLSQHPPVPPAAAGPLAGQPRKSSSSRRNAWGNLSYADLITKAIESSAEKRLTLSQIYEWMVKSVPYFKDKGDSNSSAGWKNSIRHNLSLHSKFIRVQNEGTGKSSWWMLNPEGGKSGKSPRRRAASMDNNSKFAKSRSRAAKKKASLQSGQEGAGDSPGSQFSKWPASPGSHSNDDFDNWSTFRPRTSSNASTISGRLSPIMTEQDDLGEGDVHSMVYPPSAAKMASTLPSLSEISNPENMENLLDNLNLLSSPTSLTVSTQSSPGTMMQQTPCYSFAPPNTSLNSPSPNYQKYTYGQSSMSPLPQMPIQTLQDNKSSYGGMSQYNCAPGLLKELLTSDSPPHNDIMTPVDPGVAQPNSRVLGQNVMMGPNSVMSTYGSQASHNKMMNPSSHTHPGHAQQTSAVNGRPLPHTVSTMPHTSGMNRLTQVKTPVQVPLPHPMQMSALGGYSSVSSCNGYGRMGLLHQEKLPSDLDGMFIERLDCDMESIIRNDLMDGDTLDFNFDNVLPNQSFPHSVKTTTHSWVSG

SMILES	inhibition
COc1ccc(C(=O)Nc2cc(-c3nc4cc(C(F)(F)F)ccc4[nH]3)[nH]n2)cc1Cl	> 40%
COc1ccc(C(=O)Nc2cc(-c3nc4c(C(F)(F)F)cccc4[nH]3)[nH]n2)cc1Cl	> 40%
Nc1cc(-c2nc3ccccc3[nH]2)n[nH]1	< 40%
COc1ccc(C(=O)Nc2cc(-c3nc4cc(OC(F)(F)F)ccc4[nH]3)[nH]n2)cc1Cl	> 40%
CC(=O)Nc1cc(-c2nc3ccccc3[nH]2)n[nH]1	< 40%
CC(=O)N1CCN(c2ccc(C(=O)Nc3cc(-c4nc5ccccc5[nH]4)n[nH]3)cc2)CC1	> 40%
CN1CCN(c2ccc(C(=O)Nc3cc(-c4nc5ccccc5[nH]4)n[nH]3)cc2)CC1	> 40%
CN1CCC(c2ccc(C(=O)Nc3cc(-c4nc5ccccc5[nH]4)n[nH]3)cc2)CC1	> 40%

Test system: not listed separately
Assay: Metabolic stability in human hepatocytes assessed as compound remaining at 0.3 uM measured upto 90 mins by LC-MS/MS analysis
Assay type: ADME, cell-based, Hepatocyte
Details: read-out: Stability

SMILES	remaining at 1.5 h, 0.3 µM
O=C(Nc1cc(-c2nc3ccccc3[nH]2)n[nH]1)c1ccc(N2CCNCC2)cc1	110%

Source: ChEMBL document CHEMBL5393447, “Selective foxo inhibitors for treatment of diabetes and other disorders related to impaired pancreatic function” (2022)
